Results reported in EP4591860A1, “OPHTHALMIC PHARMACEUTICAL COMPOSITION FOR THE PREVENTION AND TREATMENT OF DRY EYE SYNDROME” (FB Vision S.p.A., priority 2024, dated 2025).
“Also recorded” adds a separate entry of the source.

What was measured:
Assay type in all cases: cell-based, human
NF-kβ p65 = NF-kβ p65 DNA binding activity test (TransAM ELISA) in LPS-stimulated HCEC; details: 500 ng/ml LPS, 12 hours; PGB 100 µg/ml, HA 100 µg/ml or combination
Protocol: To evaluate the ability of the synergistic composition of the invention to inhibit NF-kβ activity in corneal cells, the NF-kβ p65 DNA Binging activity test was used with the ELISA kit of the TransAM p65 transcription factor (Active Motif, Carlsbad, CA).
HCEC cells were stimulated with 500 ng/ml LPS in the presence and absence of PGB 100 µg/ml, HA 100 µg/ml or a combination of PGB+HA for 12 hours, as described here.
Subsequently, the DNA binding activity of NF-kβ p65 was determined. 12 hours after stimulation with LPS markedly promoted the DNA-binding activity of NF-kβ p65 and the expression of the pro-inflammatory cytokines IL-1β, IL-6 and TNF-α.

HCEC cells = test: MTT cell viability assay
Protocol: The primary culture of HCEC (cat. PCS-700-010) was purchased from the American Type Culture Collection (ATCC), Manassas, VA, USA.
The cells were resuspended in basal medium for corneal epithelial cells (devoid of serum and calcium) and supplemented with a growth kit provided by ATCC.
The cells were seeded at a density of 8 × 10^3 cells/well in a 96-well plate and cultured overnight. The cells were then treated with PGB or HA at different concentrations for 24 hours or with empty medium (control). After gently washing them with PBS, the cells were incubated with 0.5 mg/ml MTT solution in the dark for 4 hours. After removing the supernatant, DMSO was added to solubilize the formazan. Absorbance at 570 nm was measured with an ELISA reader (Multiskan MK3) for cell viability.

IL-6 = test: LPS-stimulated cytokine secretion in HCEC (ELISA); details: 500 ng/mL LPS 24-hour; preincubation 1h; 100 µg/ml each, combination in 1/1 ratio
Protocol: (§1) IL-1b, IL-6 and TNF-a were detected with ELISA kits purchased from Abcam, Cambridge (MA) USA. Data are expressed as mean ± SEM, n=4; *p<0.001 with respect to LPS, **p<0.001 with respect to PGB or HA alone.
(§2) 24-hour exposure of HCECs to 500 ng/mL LPS induced maximal secretion of IL-1β, IL-6, and TNF-α, all of which are released in small amounts under basal conditions, as shown in Figure 22.

IL-1β = test: LPS-stimulated cytokine secretion in HCEC (ELISA); details: 500 ng/mL LPS 24-hour; preincubation 1h; 100 µg/ml each, combination in 1/1 ratio
Protocol: as §1, §2

TNF-α = test: LPS-stimulated cytokine secretion in HCEC (ELISA); details: 500 ng/mL LPS 24-hour; preincubation 1h; 100 µg/ml each, combination in 1/1 ratio
Protocol: as §1, §2

Compound: CC(C)C[C@H](CN)CC(=O)O [PGB, (S)-3-(aminomethyl)-5-methylhexanoic acid]
- DNA-binding activity of NF-kβ p65 (NF-kβ p65): lower DNA-binding activity
- cell viability (MTT) (HCEC cells; 24 hours, 1000 µg/ml): a certain reduction in cell viability
- cell viability (MTT), toxicity (HCEC cells; 24 hours, 10, 50, 100, 200 µg/ml): no evidence of toxicity; also recorded: did not show toxicity
- LPS-stimulated secretion of IL-6 (IL-6): significantly reduced
- LPS-stimulated secretion of IL-1β (IL-1β): significantly reduced
- LPS-stimulated secretion of TNF-α (TNF-α): significantly reduced
